The values that follow come from patent publication US20240408215A1, “USE OF DIAZIRINE LINKER FOR DRUG CONJUGATES” (HELMHOLTZ ZENTRUM MUNCHEN - DEUTSCHES FORSCHUNGSZENTRUM FUR …, priority 2021, published 2024).

The series in a line: Pulsed UV light release of 7-hydroxycoumarin in homogenous media, with dark intervals. Type of series: physicochemical. The conditions noted are these: FIG. 7.

For the molecule `[N-]=[N+]=NCCCCCC(=O)OCC1(COc2ccc3ccc(=O)oc3c2)N=N1` [(3-(((2-oxo-2H-chromen-7-yl)oxy)methyl)-3H-diazirin-3-yl)methyl-6-azidohexanoate], the “release of 7-hydroxycoumarin in the dark after the light pulse” value (1-2 minutes in the dark after each pulse) was “no additional leaking of payload occurs after ending the pulse”. For the same molecule, the “release of 7-hydroxycoumarin upon UV light irradiation” value (water/EtOH/DMSO (1.0:1.0:0.1), UV light pulses, not attached to agarose) is recorded as “efficient release”.
